Measured values published in PubChem BioAssay AID2060511 (Molecular Pharmacology Branch, DTP, NCI, 2025).

Tested on: 422866-222-R5-J1-PDC spheroids with HUVEC/MSC, viability
Assay: Anticancer human tumor 422866-222-R5-J1-PDC patient-derived pancreatic adenocarcinoma cell line growth inhibition [GQUAD]
Settings: for IC50: curve of first compound; for viability, T/C: stronger effect = lower value
Source text: DNA G-quadruplex Stabilizer Agents in Combinations in Complex Spheroids
A high-throughput screen of multi-cell type tumor spheroids was designed to identify active combinations of DNA G-quadruplex stabilizer agents and targeted small molecules. Complex spheroids include a stromal component modeled by human endothelial cells (HUVEC) and fibroblasts modeled by human mesenchymal stem cells (MSCs). The concentration ranges selected for each drug and investigational agent were based upon clinically achievable concentrations if the clinical Cmax of the agent was known.
Compounds. The drugs and investigational agents: pidnarulex (CX-5461; NSC782164), APTO-253 (NSC789042), BRACO-19 (NSC847499), peposertib (NSC802822), ceralasertib (NSC780249), elimusertib (NSC800525), camonsertib (NSC841442), AZD-1390 (NSC803789), olaparib (NSC753686), talazoparib (NSC767125), ART-558 (NSC835418), sotorasib (NSC818433), MRTX-1133 (NSC836407), SN-38 (NSC673596), topotecan (NSC609699), etoposide (NSC141540), doxorubicin (NSC123127), gemcitabine (NSC613327), 5-fluorouracil (NSC19893), paclitaxel (NSC125973), vemurafenib (NSC761431), panobinostat (NSC761190), R-306465 (JNJ-16241199; NSC773264), adavosertib (NSC754352), TP-3654 (NSC805149), carboplatin (NSC241240), KSQ-4279 (NSC840948), and staurosporine (NSC755774) were obtained from the National Cancer Institute (NCI) Developmental Therapeutics Program Chemical Repository (34). The FDA-approved anticancer drug set is available from the NCI Developmental Therapeutics Program. […] The stock solutions were prepared in dimethyl sulfoxide (DMSO, Sigma-Aldrich, St. Louis, MO, cat. D2650) at 800-fold the tested concentration and stored at -70 degrees C prior to their use. All drugs and investigational agents were tested over a range starting from a high concentration at or near the clinical Cmax and decreasing in half-log increments. If the clinical Cmax for an agent had not been determined, the highest concentration tested was 10 microM.
2.3 Cell Culture. All cells were maintained in an incubator at 37 degrees C and 5% CO2 with 95% humidity. The PDC lines were cultured according to standard operating procedures established by the NCI PDMR. All PDCs were thawed and cultured in Matrigel-coated flasks prepared with a working solution of 1X Ham's F-12 nutrient mix, without supplementation (Invitrogen, cat. 11765054), 100 U/mL penicillin-streptomycin (Invitrogen, cat. 15140122), and 2.5% Matrigel (Corning Inc., cat. 354248) for the first three passages. The 857933-349-R-J2-PDC line was cultured in 6C/Colon 1B media, which includes advanced DMEM/F-12 (Thermo Fisher Scientific, cat. 12634028), 10 mM HEPES (Thermo Fisher Scientific, cat. 15630080), 1X GlutaMAX supplement (Thermo Fisher Scientific, cat. 35050061), 0.1 mg/mL primocin (InvivoGen, cat. ant-pm-2), 10% defined fetal bovine serum, heat inactivated (HyClone Laboratories Inc., cat. SH30070.03HI), 50% L-WRN conditioned media (ATCC, cat. CRL-3276), 1.25 mM N-Acetyl-L-cysteine (Sigma-Aldrich, cat. A9165), 10 mM nicotinamide (Sigma-Aldrich, cat. N0636), 1X B-27 supplement (Thermo Fisher Scientific, cat. 17504044), 1X N-2 supplement (Thermo Fisher Scientific, cat. 17502048), 10 microM Y-27632 dihydrochloride (Tocris Bioscience, cat. 1254), and 50 ng/mL human EGF recombinant protein (Thermo Fisher Scientific, cat. PHG0311). The 485176-168-R4-J1-PDC line was cultured in Panc media, which includes all 6C/Colon 1B media components plus 100 ng/mL human FGF-10 (Thermo Fisher Scientific, cat. 100-26), 500 nM SB-431542 (Selleckchem, cat. S1067), and gastrin (Tocris, cat. 3006).
[…]

[1] = second compound 0.0316 µM, first compound 0.0316 µM
[2] = second compound 0.0316 µM, first compound 0.1 µM
[3] = second compound 0.0316 µM, first compound 0.316 µM
[4] = second compound 0.0316 µM, first compound 1 µM
[5] = second compound 0.0316 µM, first compound 3.16 µM
[6] = second compound 0.0316 µM, first compound 10 µM
[7] = second compound 0.1 µM, first compound 0.0316 µM
[8] = second compound 0.1 µM, first compound 0.1 µM
[9] = second compound 0.1 µM, first compound 0.316 µM
[10] = second compound 0.1 µM, first compound 1 µM
[11] = second compound 0.1 µM, first compound 3.16 µM
[12] = second compound 0.1 µM, first compound 10 µM
[13] = second compound 0.316 µM, first compound 0.0316 µM
[14] = second compound 0.316 µM, first compound 0.1 µM
[15] = second compound 0.316 µM, first compound 0.316 µM
[16] = second compound 0.316 µM, first compound 1 µM
[17] = second compound 0.316 µM, first compound 3.16 µM
[18] = second compound 0.316 µM, first compound 10 µM
[19] = second compound 1 µM, first compound 0.0316 µM
[20] = second compound 1 µM, first compound 0.1 µM
[21] = second compound 1 µM, first compound 0.316 µM
[22] = second compound 1 µM, first compound 1 µM
[23] = second compound 1 µM, first compound 3.16 µM
[24] = second compound 1 µM, first compound 10 µM
[25] = second compound 3.16 µM, first compound 0.0316 µM
[26] = second compound 3.16 µM, first compound 0.1 µM
[27] = second compound 3.16 µM, first compound 0.316 µM
[28] = second compound 3.16 µM, first compound 1 µM
[29] = second compound 3.16 µM, first compound 3.16 µM
[30] = second compound 3.16 µM, first compound 10 µM
[31] = second compound 10 µM, first compound 0.0316 µM
[32] = second compound 10 µM, first compound 0.1 µM
[33] = second compound 10 µM, first compound 0.316 µM
[34] = second compound 10 µM, first compound 1 µM
[35] = second compound 10 µM, first compound 3.16 µM
[36] = second compound 10 µM, first compound 10 µM
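Note: spheroids exposed to compounds for seven days before reading.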
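Throughout, for viability, T/C: percent viability relative to DMSO vehicle control taken as 100%.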

For `CC1COCCN1c1cc(-c2ccnn2C)c2ccnc(-c3ccn[nH]3)c2n1` (stereo unspecified) + Cc1cnc(CNC(=O)c2c(=O)c3ccc(N4CCCN(C)CC4)nc3n3c2sc2ccccc23)cn1, the IC50 (second compound 0.0316 µM) was greater than 10 µM, the IC50 (second compound 0.1 µM) was 0.0316 µM and the IC50 (second compound 0.316 µM) was greater than 10 µM. The IC50 (second compound 1 µM) was greater than 10 µM, the IC50 (second compound 3.16 µM) was greater than 10 µM and the IC50 (second compound 10 µM) was greater than 10 µM. It also gave a viability, T/C [1] of 75.9%, a viability, T/C [2] of 61.6% and a viability, T/C [3] of 47.4%. For the same compound, the viability, T/C [4] was 38%, the viability, T/C [5] was 55% and the viability, T/C [6] was 81.7%. It also gave a viability, T/C [7] of 64.5%, a viability, T/C [8] of 53.1% and a viability, T/C [9] of 48.5%. The viability, T/C [10] was 41.6%, the viability, T/C [11] was 46.5% and the viability, T/C [12] was 89.7%. For the same compound, the viability, T/C [13] was 65.3%, the viability, T/C [14] was 60.9% and the viability, T/C [15] was 50.7%. It also gave a viability, T/C [16] of 40.5%, a viability, T/C [17] of 50.9% and a viability, T/C [18] of 69.9%. It also gave a viability, T/C [19] of 71.4%, a viability, T/C [20] of 68.7% and a viability, T/C [21] of 53.2%. For the same compound, the viability, T/C [22] was 53.1%, the viability, T/C [23] was 47.5% and the viability, T/C [24] was 67.7%. For the same compound, the viability, T/C [25] was 70.2%, the viability, T/C [26] was 74.8% and the viability, T/C [27] was 61%. The viability, T/C [28] was 59%, the viability, T/C [29] was 46.9% and the viability, T/C [30] was 61.8%. For the same compound, the viability, T/C [31] was 66.3%, the viability, T/C [32] was 66.9% and the viability, T/C [33] was 56%. The viability, T/C [34] was 51.6%, the viability, T/C [35] was 57.6% and the viability, T/C [36] was 53.1%.

`COc1ccc([C@@H](O)c2cc(-c3ncnc4cc(N5CCOCC5)ccc34)c(F)cc2Cl)nn1` + Cc1cnc(CNC(=O)c2c(=O)c3ccc(N4CCCN(C)CC4)nc3n3c2sc2ccccc23)cn1 gave an IC50 (second compound 0.0316 µM) of 1.39 µM, an IC50 (second compound 0.1 µM) of 2.05 µM and an IC50 (second compound 0.316 µM) of 3.66 µM. For the same compound, the IC50 (second compound 1 µM) was 2.36 µM, the IC50 (second compound 3.16 µM) was 1.94 µM and the IC50 (second compound 10 µM) was 1.8 µM. It also gave a viability, T/C [1] of 106%, a viability, T/C [2] of 82.7% and a viability, T/C [3] of 78.8%. The viability, T/C [4] was 47.9%, the viability, T/C [5] was 41.9% and the viability, T/C [6] was 35.5%. The viability, T/C [7] was 94.8%, the viability, T/C [8] was 87.4% and the viability, T/C [9] was 68.5%. The viability, T/C [10] was 57.1%, the viability, T/C [11] was 47.2% and the viability, T/C [12] was 39.3%. It also gave a viability, T/C [13] of 97.3%, a viability, T/C [14] of 85.3% and a viability, T/C [15] of 72.8%. It also gave a viability, T/C [16] of 60.2%, a viability, T/C [17] of 54% and a viability, T/C [18] of 40.4%. It also gave a viability, T/C [19] of 97.3%, a viability, T/C [20] of 87.4% and a viability, T/C [21] of 83.4%. For the same compound, the viability, T/C [22] was 62.8%, the viability, T/C [23] was 45.1% and the viability, T/C [24] was 35.5%. For the same compound, the viability, T/C [25] was 90.9%, the viability, T/C [26] was 80.1% and the viability, T/C [27] was 78.5%. For the same compound, the viability, T/C [28] was 57.6%, the viability, T/C [29] was 43.6% and the viability, T/C [30] was 34%. The viability, T/C [31] was 81.9%, the viability, T/C [32] was 78% and the viability, T/C [33] was 70.3%. For the same compound, the viability, T/C [34] was 55.9%, the viability, T/C [35] was 44.1% and the viability, T/C [36] was 31.6%.

In the case of `Cc1cccc(N(C)C(=O)C2C(O)CCN2c2nc(C)cc(C(F)(F)F)c2C#N)c1` (stereo unspecified) + Cc1cnc(CNC(=O)c2c(=O)c3ccc(N4CCCN(C)CC4)nc3n3c2sc2ccccc23)cn1, the IC50 (second compound 0.0316 µM) is reported as greater than 10 µM, the IC50 (second compound 0.1 µM) is reported as greater than 10 µM and the IC50 (second compound 0.316 µM) is reported as greater than 10 µM. The IC50 (second compound 1 µM) was greater than 10 µM, the IC50 (second compound 3.16 µM) was greater than 10 µM and the IC50 (second compound 10 µM) was greater than 10 µM. The viability, T/C [1] was 95%, the viability, T/C [2] was 82.2% and the viability, T/C [3] was 83.9%. It also gave a viability, T/C [4] of 92.8%, a viability, T/C [5] of 90.5% and a viability, T/C [6] of 88.7%. The viability, T/C [7] was 95.9%, the viability, T/C [8] was 86.3% and the viability, T/C [9] was 86.8%. The viability, T/C [10] was 83.7%, the viability, T/C [11] was 102% and the viability, T/C [12] was 90.9%. The viability, T/C [13] was 85.8%, the viability, T/C [14] was 90.5% and the viability, T/C [15] was 98.9%. It also gave a viability, T/C [16] of 83.7%, a viability, T/C [17] of 85.3% and a viability, T/C [18] of 85.5%. The viability, T/C [19] was 82%, the viability, T/C [20] was 85.8% and the viability, T/C [21] was 86.1%. It also gave a viability, T/C [22] of 79.7%, a viability, T/C [23] of 94.1% and a viability, T/C [24] of 91.6%. For the same compound, the viability, T/C [25] was 73.7%, the viability, T/C [26] was 80% and the viability, T/C [27] was 86.1%. For the same compound, the viability, T/C [28] was 79.7%, the viability, T/C [29] was 96.5% and the viability, T/C [30] was 78.8%. The viability, T/C [31] was 75.3%, the viability, T/C [32] was 75.6% and the viability, T/C [33] was 75%. It also gave a viability, T/C [34] of 86.5%, a viability, T/C [35] of 89% and a viability, T/C [36] of 77.7%.
